The source made the active and inactive calls. No cut-off for these calls is given here.
How the values were obtained:
[1] = target: T1, DNA topoisomerase 1 (Homo sapiens) (UniProt P11387); assay: Inhibition of DNA topoisomerase 1 (unknown origin) assessed as reduction in pBR322 DNA relaxation at 10 uM incubated for 30 mins measured by agarose gel electrophoresis method relative to control
T1 sequence (whole entry): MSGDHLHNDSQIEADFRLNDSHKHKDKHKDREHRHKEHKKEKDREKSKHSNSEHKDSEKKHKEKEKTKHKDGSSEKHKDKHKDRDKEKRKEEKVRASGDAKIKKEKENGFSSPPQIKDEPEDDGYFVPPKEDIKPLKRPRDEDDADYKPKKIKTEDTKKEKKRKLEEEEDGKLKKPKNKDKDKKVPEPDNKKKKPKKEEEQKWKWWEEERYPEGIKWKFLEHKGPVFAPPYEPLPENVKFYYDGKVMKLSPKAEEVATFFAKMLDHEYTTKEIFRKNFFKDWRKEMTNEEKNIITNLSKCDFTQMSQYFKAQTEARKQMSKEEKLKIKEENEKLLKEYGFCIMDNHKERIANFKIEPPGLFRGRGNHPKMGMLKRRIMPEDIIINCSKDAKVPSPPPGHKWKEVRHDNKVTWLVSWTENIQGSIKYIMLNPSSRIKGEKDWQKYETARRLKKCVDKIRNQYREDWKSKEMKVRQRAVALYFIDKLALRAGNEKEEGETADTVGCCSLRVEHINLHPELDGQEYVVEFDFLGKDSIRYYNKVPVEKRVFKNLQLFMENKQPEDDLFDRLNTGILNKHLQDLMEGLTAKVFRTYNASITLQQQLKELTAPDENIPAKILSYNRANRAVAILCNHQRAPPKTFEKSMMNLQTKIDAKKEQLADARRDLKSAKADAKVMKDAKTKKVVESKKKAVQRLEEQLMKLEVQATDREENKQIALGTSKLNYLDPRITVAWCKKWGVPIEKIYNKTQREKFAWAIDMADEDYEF

A549 [2] = assay: Induction of apoptosis in human A549 cells assessed as necrotic cells at 2.5 uM incubated for 48 hrs by Annexin V-FITC/propidium iodide staining based flow cytometric analysis; assay type: functional
A549 [3] = assay: Anti-migration activity in human A549 cells assessed as distance travelled at 0.625 uM incubated for 48 hrs by wound healing assay based phase contrast microscopy; assay type: functional
A549 [4] = assay: Induction of apoptosis in human A549 cells assessed as nuclear fragmentation at 0.625 to 2.5 uM incubated for 48 hrs by DAPI staining based fluorescence microscopic analysis; assay type: functional, cell-based; settings: dose 0.625-2.5 µM
[5] = target: DNA topoisomerase 2-alpha (Homo sapiens) (UniProt P11388); assay: Inhibition of DNA topoisomerase 2 (unknown origin) assessed as reduction in decatenation using kDNA as substrate incubated for 30 mins measured by agarose gel electrophoresis method
DNA topoisomerase 2-alpha (Homo sapiens), sequence (P11388 whole entry): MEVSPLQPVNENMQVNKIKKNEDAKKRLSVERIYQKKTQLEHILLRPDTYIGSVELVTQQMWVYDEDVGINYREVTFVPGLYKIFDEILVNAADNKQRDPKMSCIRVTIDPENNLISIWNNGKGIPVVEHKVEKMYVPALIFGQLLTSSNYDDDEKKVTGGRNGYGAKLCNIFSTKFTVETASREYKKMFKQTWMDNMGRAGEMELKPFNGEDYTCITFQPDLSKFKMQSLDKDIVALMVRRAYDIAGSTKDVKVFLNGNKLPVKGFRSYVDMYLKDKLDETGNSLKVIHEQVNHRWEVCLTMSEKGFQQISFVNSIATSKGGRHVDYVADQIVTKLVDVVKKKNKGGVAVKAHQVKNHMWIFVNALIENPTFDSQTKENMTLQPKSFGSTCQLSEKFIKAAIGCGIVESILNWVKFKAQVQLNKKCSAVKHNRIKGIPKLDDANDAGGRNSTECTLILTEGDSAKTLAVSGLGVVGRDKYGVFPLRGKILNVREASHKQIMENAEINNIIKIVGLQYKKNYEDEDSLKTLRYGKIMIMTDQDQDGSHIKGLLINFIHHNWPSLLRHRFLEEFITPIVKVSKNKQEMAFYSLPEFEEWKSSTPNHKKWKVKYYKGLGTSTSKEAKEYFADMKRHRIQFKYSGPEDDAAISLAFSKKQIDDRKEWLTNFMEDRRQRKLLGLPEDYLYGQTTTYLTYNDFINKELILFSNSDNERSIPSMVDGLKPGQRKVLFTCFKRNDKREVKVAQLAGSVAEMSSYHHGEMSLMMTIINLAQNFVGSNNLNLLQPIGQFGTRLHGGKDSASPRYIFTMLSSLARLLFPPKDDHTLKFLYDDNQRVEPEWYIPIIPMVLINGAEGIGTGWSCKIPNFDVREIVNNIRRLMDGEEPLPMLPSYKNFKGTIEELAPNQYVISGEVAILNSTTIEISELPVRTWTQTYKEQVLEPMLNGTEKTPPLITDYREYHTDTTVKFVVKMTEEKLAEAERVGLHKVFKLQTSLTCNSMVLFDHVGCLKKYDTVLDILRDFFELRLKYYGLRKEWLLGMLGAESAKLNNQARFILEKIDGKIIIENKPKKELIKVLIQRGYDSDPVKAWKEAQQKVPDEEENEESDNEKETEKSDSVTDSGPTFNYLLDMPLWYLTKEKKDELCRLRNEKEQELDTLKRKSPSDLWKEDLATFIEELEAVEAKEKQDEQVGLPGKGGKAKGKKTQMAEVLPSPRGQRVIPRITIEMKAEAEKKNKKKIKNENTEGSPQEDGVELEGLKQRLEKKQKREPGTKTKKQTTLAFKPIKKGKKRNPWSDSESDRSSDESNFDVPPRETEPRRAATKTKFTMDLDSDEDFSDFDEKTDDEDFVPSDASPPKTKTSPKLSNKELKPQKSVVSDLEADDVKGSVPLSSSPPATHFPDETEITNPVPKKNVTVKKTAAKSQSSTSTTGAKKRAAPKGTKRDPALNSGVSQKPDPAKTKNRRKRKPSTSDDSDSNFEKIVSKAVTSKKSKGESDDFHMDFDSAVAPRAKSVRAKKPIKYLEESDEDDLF

A549 [6] = assay: Induction of apoptosis in human A549 cells assessed as chromatin condensation at 0.625 to 2.5 uM incubated for 48 hrs by AO/EB staining based fluorescence microscopy; assay type: functional, cell-based; settings: dose 0.625-2.5 µM, DDE = dose-dependent effect
A549 [7] = assay: Inhibition of cell migration in human A549 cells at 0.625 to 2.5 uM incubated for 48 hrs by wound healing assay based phase contrast microscopy; assay type: functional; settings: dose 0.625-2.5 µM, DDE = dose-dependent effect
A549 [8] = assay: Inhibition of colony formation in human A549 cells assessed as decrease in colonies at 0.625 to 2.5 uM incubated for 7 days by crystal violet staining based assay; assay type: functional, cell-based; settings: dose 0.625-2.5 µM, time 7.0 day, DDE = dose-dependent effect
A549 [9] = assay: Induction of apoptosis in human A549 cells assessed as late apoptotic cells at 0.625 to 1.25 uM incubated for 48 hrs by Annexin V-FITC/propidium iodide staining based flow cytometric analysis; assay type: functional, cell-based; settings: dose 0.625-1.25 µM
MCF7 = assay: Cytotoxicity against human MCF7 cells assessed as cell growth inhibition incubated for 48 hrs by MTT assay; assay type: functional, cell-based; settings: MCF7, 48 h
Calf thymus DNA [10] = assay: Binding affinity to calf thymus DNA assessed as hyperchromicity at 10 uM by circular dichroism spectroscopy; assay type: nucleic-acid assay; settings: Bos taurus
Calf thymus DNA [11] = assay: Binding affinity to calf thymus DNA assessed as hyperchromicity at 10 to 20 uM by UV-Vis spectroscopic analysis; assay type: nucleic-acid assay; settings: Bos taurus; dose 10-20 µM
A549 [12] = assay: Induction of apoptosis in human A549 cells assessed as membrane blebbing at 0.625 to 2.5 uM incubated for 48 hrs by AO/EB staining based fluorescence microscopy; assay type: functional, cell-based; settings: dose 0.625-2.5 µM, DDE = dose-dependent effect
DNA topoisomerase 1 = target: T2, DNA topoisomerase 1 (Homo sapiens, UniProt P11387); assay: Inhibition of human DNA topoisomerase 1 assessed as reduction in pBR322 DNA relaxation incubated for 1 hrs measured by agarose gel electrophoresis method
T2 sequence (P11387 whole entry): T1 sequence (whole entry)

[13] = Cytotoxicity against rat NRK cells assessed as cell growth inhibition incubated for 48 hrs by MTT assay; assay type: toxicity, cell-based
A549 [14] = assay: Cytotoxicity against human A549 cells assessed as cell growth inhibition incubated for 48 hrs by MTT assay; assay type: functional, cell-based; settings: A549, 48 h
SK-MEL-28 = assay: Cytotoxicity against human SK-MEL-28 cells assessed as cell growth inhibition incubated for 48 hrs by MTT assay; assay type: functional, cell-based; settings: SK-MEL-28, 48 h
A549 [15] = assay: Anti-migration activity in human A549 cells assessed as distance travelled at 2.5 uM incubated for 48 hrs by wound healing assay based phase contrast microscopy; assay type: functional
A549 [16] = assay: Induction of apoptosis in human A549 cells assessed as changes in nuclear morphology at 0.625 to 2.5 uM incubated for 48 hrs by DAPI staining based fluorescence microscopic analysis; assay type: functional, cell-based; settings: dose 0.625-2.5 µM
A549 [17] = assay: Induction of apoptosis in human A549 cells assessed as changes in cell morphology at 0.625 to 2.5 uM incubated for 48 hrs by phase contrast microscopy; assay type: functional, cell-based; settings: dose 0.625-2.5 µM
A549 [18] = assay: Anti-migration activity in human A549 cells assessed as distance travelled at 0.625 uM by wound healing assay based phase contrast microscopy; assay type: functional
A549 [19] = assay: Induction of apoptosis in human A549 cells assessed as necrotic cells at 0.625 to 2.5 uM incubated for 48 hrs by Annexin V-FITC/propidium iodide staining based flow cytometric analysis; assay type: functional; settings: dose 0.625-2.5 µM
A549 [20] = assay: Induction of apoptosis in human A549 cells assessed as necrotic cells at 0.625 uM incubated for 48 hrs by Annexin V-FITC/propidium iodide staining based flow cytometric analysis; assay type: functional
A549 [21] = assay: Induction of apoptosis in human A549 cells assessed as apoptotic body fragmentation at 0.625 to 2.5 uM incubated for 48 hrs by AO/EB staining based fluorescence microscopy; assay type: functional, cell-based; settings: dose 0.625-2.5 µM, DDE = dose-dependent effect
A549 [22] = assay: Induction of apoptosis in human A549 cells assessed as cell shrinkage at 0.625 to 2.5 uM incubated for 48 hrs by phase contrast microscopy; assay type: functional, cell-based; settings: dose 0.625-2.5 µM, DDE = dose-dependent effect
A549 [23] = assay: Anti-migration activity in human A549 cells assessed as distance travelled at 1.25 uM by wound healing assay based phase contrast microscopy; assay type: functional
A549 [24] = assay: Anti-migration activity in human A549 cells assessed as distance travelled at 1.25 uM incubated for 48 hrs by wound healing assay based phase contrast microscopy; assay type: functional
A549 [25] = assay: Induction of apoptosis in human A549 cells assessed as chromatin condensation at 0.625 to 2.5 uM incubated for 48 hrs by DAPI staining based fluorescence microscopic analysis; assay type: functional, cell-based; settings: dose 0.625-2.5 µM
A549 [26] = assay: Induction of intracellular ROS generation in human A549 cells at 0.625 to 2.5 uM incubated for 48 hrs by […] fluorescence microscopic analysis; assay type: functional, cell-based; settings: dose 0.625-2.5 µM, DDE = dose-dependent effect
A549 [27] = assay: Induction of apoptosis in human A549 cells assessed as reduction on viable cells at 0.625 to 2.5 uM incubated for 48 hrs by phase contrast microscopy; assay type: functional, cell-based; settings: dose 0.625-2.5 µM, DDE = dose-dependent effect
HT-29 = assay: Cytotoxicity against human HT-29 cells assessed as cell growth inhibition incubated for 48 hrs by MTT assay; assay type: functional, cell-based; settings: HT-29, 48 h
A549 [28] = assay: Induction of apoptosis in human A549 cells assessed as cell membrane disruption at 0.625 to 2.5 uM incubated for 48 hrs by phase contrast microscopy; assay type: functional, cell-based; settings: dose 0.625-2.5 µM, DDE = dose-dependent effect
Calf thymus DNA [29] = assay: Binding affinity to calf thymus DNA assessed as increase in viscosity at 15 uM by ethidium bromide-Hoechst 33342 staining based analysis; assay type: nucleic-acid assay; settings: Bos taurus
A549 [30] = assay: Induction of apoptosis in human A549 cells assessed as late apoptotic cells at 2.5 uM incubated for 48 hrs by Annexin V-FITC/propidium iodide staining based flow cytometric analysis; assay type: functional
HCT-116 = assay: Cytotoxicity against human HCT-116 cells assessed as cell growth inhibition incubated for 48 hrs by MTT assay; assay type: functional, cell-based; settings: HCT-116, 48 h
A549 [31] = assay: Anti-migration activity in human A549 cells assessed as distance travelled at 2.5 uM by wound healing assay based phase contrast microscopy; assay type: functional
A549 [32] = assay: Induction of apoptosis in human A549 cells assessed as cell shrinkage at 0.625 to 2.5 uM incubated for 48 hrs by AO/EB staining based fluorescence microscopy; assay type: functional; settings: dose 0.625-2.5 µM, DDE = dose-dependent effect

Cc1ccc(C/N=C2\NC(=O)/C(=C3\CCNC(=O)c4[nH]c5ccccc5c43)S2)cc1
inhibition [1]: 28% | Activity (A549 [2]): 5.96% | Activity (A549 [3]): 259.59 um | Activity (A549 [4]): Active | inhibition [5]: Active | Activity (A549 [6]): Dde | inhibition (A549 [7]): Dde | inhibition (A549 [8]): Dde | Activity (A549 [9]): Active | IC50 (MCF7): 8.03 µM | Activity (Calf thymus DNA [10]): Active | Activity (Calf thymus DNA [11]): Active | Activity (A549 [12]): Dde | IC50 (DNA topoisomerase 1): 48 µM | IC50 at 48 h [13]: 53.2 µM | IC50 (A549 [14]): 1240 nM | IC50 (SK-MEL-28): 3.02 µM | Activity (A549 [15]): 445.52 um | Activity (A549 [16]): Active | Activity (A549 [17]): Active | Activity (A549 [18]): 298.42 um | Activity (A549 [19]): 2.97% | Activity (A549 [20]): 4.8% | Activity (A549 [21]): Dde | Activity (A549 [22]): Dde | Activity (A549 [23]): 391.93 um | Activity (A549 [24]): 293.25 um | Activity (A549 [25]): Active | Activity (A549 [26]): Dde | Activity (A549 [27]): Dde | IC50 (HT-29): 10.9 µM | Activity (A549 [28]): Dde | Activity (Calf thymus DNA [29]): Active | Activity (A549 [30]): 3.09% | IC50 (HCT-116): 6.55 µM | Activity (A549 [31]): 363.56 um | Activity (A549 [32]): Dde

Reference: ChEMBL document CHEMBL5137032, “Design, synthesis of DNA-interactive 4-thiazolidinone-based indolo-/pyrroloazepinone conjugates as potential cytotoxic and topoisomerase I inhibitors” (Eur J Med Chem, 2022)
